From ChEMBL document CHEMBL3045961, “Synthesis and evaluation of some pyrimidine analogs against toxoplasmosis” (Med Chem Res, 2008) come the findings set out here.

Usually IC50 stands for the concentration that inhibits the measured activity by half.

Calls of active or inactive are those of the source. No cut-off for these calls is given here.

Experiment [1] deals with Toxoplasma gondii. Briefly: Antiparasitic activity Toxoplasma gondii RH infected Swiss albino mouse assessed as parasite deformity in host peritoneal exudate at 0.25 mg, po administered 48 hr post-infection measured after 3 days by light microscopic analysis. In kind it is functional, organism-based.
For experiment [2], the system named is Toxoplasma gondii. Briefly: Antiparasitic activity Toxoplasma gondii RH infected Swiss albino mouse assessed as megakaryocytes in host spleen at 0.25 mg, po administered 48 hr post-infection measured after 3 days by haematoxylin and eosin staining relative to control. In kind it is functional, organism-based.
The subject of experiment [3] is Toxoplasma gondii. Briefly: Antiparasitic activity against Toxoplasma gondii RH infected Swiss albino mouse assessed as decrease in tachozyte count in spleen at 0.25 mg, po administered 48 hr post-infection measured after 3 days by Geimsa staining relative to control. The class given is functional, organism-based.
In the next experiment the target is T1, Dihydrofolate reductase (Homo sapiens, UniProt P00374).
T1 sequence (P00374 whole entry): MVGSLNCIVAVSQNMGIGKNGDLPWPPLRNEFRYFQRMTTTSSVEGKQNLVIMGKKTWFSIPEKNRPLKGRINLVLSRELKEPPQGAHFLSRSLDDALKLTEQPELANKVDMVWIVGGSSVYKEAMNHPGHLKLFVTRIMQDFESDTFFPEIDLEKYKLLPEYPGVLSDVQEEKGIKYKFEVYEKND
The experiment in a line: Inhibition of Homo sapiens (human) dihydrofolate reductase using dihydrofolate as substrate incubated for 5 min prior to substrate addition by spectrophotometric assay.

The test system of experiment [4] is Toxoplasma gondii. Briefly: Antiparasitic activity Toxoplasma gondii RH infected Swiss albino mouse assessed as extramedullary hematopoiesis in host spleen at 0.25 mg, po administered 48 hr post-infection measured after 3 days by haematoxylin and eosin staining relative to control. In kind it is functional, organism-based.
For experiment [5], the system named is Toxoplasma gondii. The experiment in a line: Antiparasitic activity Toxoplasma gondii RH infected Swiss albino mouse assessed as decreased parasite movement in host peritoneal exudate at 0.25 mg, po administered 48 hr post-infection measured after 3 days by light microscopic analysis. In kind it is functional, organism-based.
In experiment [6] the test system is Toxoplasma gondii. The experiment in a line: Antiparasitic activity Toxoplasma gondii RH infected Swiss albino mouse assessed as clear mononuclear cells in host liver focal granuloma at 0.25 mg, po administered 48 hr post-infection measured after 3 days by haematoxylin and eosin staining relative to control. In kind it is functional, organism-based.
Experiment [7] deals with Toxoplasma gondii. The experiment in a line: Antiparasitic activity Toxoplasma gondii RH infected Swiss albino mouse assessed as epethelioid granuloma in host spleen at 0.25 mg, po administered 48 hr post-infection measured after 3 days by haematoxylin and eosin staining relative to control. The class given is functional, organism-based.
Experiment [8] relates to Toxoplasma gondii. Briefly: Antiparasitic activity Toxoplasma gondii RH infected Swiss albino mouse assessed as decrease in Toxoplasma antigen in host serum at 0.25 mg, po administered 48 hr post-infection measured after 3 days by Co-A test relative to control. In kind it is functional, organism-based.
Experiment [9] deals with Toxoplasma gondii. Briefly: Antiparasitic activity against Toxoplasma gondii RH infected Swiss albino mouse assessed as decrease in tachozyte count in liver at 0.25 mg, po administered 48 hr post-infection measured after 3 days by Geimsa staining relative to control. The class given is functional, organism-based.
Experiment [10] concerns Toxoplasma gondii. Briefly: Antiparasitic activity Toxoplasma gondii RH infected Swiss albino mouse assessed as increase in host spleen red pulp at 0.25 mg, po administered 48 hr post-infection measured after 3 days by haematoxylin and eosin staining relative to control. The class given is functional, organism-based.
For experiment [11], the system named is Toxoplasma gondii. Briefly: Antiparasitic activity Toxoplasma gondii RH infected Swiss albino mouse assessed as clear lymphocytes in host liver focal granuloma at 0.25 mg, po administered 48 hr post-infection measured after 3 days by haematoxylin and eosin staining relative to control. In kind it is functional, organism-based.
Experiment [12] has as its system Toxoplasma gondii. The experiment in a line: Antiparasitic activity Toxoplasma gondii RH infected Swiss albino mouse assessed as decrease in host spleen white pulp at 0.25 mg, po administered 48 hr post-infection measured after 3 days by haematoxylin and eosin staining relative to control. In kind it is functional, organism-based.
The test system of experiment [13] is Toxoplasma gondii. Briefly: Antiparasitic activity Toxoplasma gondii RH infected Swiss albino mouse assessed as decrease in host spleen necrosis at 0.25 mg, po administered 48 hr post-infection measured after 3 days by haematoxylin and eosin staining relative to control. In kind it is functional, organism-based.
Experiment [14] deals with Toxoplasma gondii. The experiment in a line: Antiparasitic activity Toxoplasma gondii RH infected Swiss albino mouse assessed as decrease in host liver necrosis at 0.25 mg, po administered 48 hr post-infection measured after 3 days by haematoxylin and eosin staining relative to control. In kind it is functional, organism-based.
Experiment [15] concerns Toxoplasma gondii. The experiment in a line: Antiparasitic activity Toxoplasma gondii RH infected Swiss albino mouse assessed as decrease in host lung congestion at 0.25 mg, po administered 48 hr post-infection measured after 3 days by haematoxylin and eosin staining relative to control. In kind it is functional, organism-based.
For experiment [16], the system named is Toxoplasma gondii. The experiment in a line: Antiparasitic activity Toxoplasma gondii RH infected Swiss albino mouse assessed as decrease in interstitial pneumonia at 0.25 mg, po administered 48 hr post-infection measured after 3 days by haematoxylin and eosin staining relative to control. The class given is functional, organism-based.
For experiment [17], the target named is T2, Bifunctional dihydrofolate reductase-thymidylate synthase (Cryptosporidium parvum, UniProt Q27552).
T2 sequence (Q27552 whole entry): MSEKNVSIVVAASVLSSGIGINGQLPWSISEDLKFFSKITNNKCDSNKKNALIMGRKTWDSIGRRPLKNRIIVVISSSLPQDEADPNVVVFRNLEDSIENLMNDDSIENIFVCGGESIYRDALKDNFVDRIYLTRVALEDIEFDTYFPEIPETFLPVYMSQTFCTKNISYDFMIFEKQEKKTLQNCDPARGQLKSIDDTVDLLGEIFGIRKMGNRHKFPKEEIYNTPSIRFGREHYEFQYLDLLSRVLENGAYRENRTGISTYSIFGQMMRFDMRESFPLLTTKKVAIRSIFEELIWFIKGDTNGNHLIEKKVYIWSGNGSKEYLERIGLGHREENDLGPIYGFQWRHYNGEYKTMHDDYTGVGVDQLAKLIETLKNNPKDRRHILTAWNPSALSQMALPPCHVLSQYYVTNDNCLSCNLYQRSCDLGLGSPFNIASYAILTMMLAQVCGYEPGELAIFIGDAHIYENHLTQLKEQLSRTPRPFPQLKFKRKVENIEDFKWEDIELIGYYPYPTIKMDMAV
The experiment in a line: Inhibition of Cryptosporidium parvum recombinant DHFR using dihydrofolate as substrate incubated for 5 min prior to substrate addition by spectrophotometric assay.

Regarding `CCOC(=O)CSC1=NC(c2ccccc2OC)C(C(=O)OCC)=C(C)N1` (configuration not stated), the result in the experiment on Toxoplasma gondii [1], in the experiment with Toxoplasma gondii [2], in the experiment with Toxoplasma gondii [3], in the experiment with Toxoplasma gondii [4], in the experiment with Toxoplasma gondii [5] and in the experiment on Toxoplasma gondii [6] was inactive. For the same molecule, the outcome in the experiment with Toxoplasma gondii [7], in the experiment with Toxoplasma gondii [8], in the experiment on Toxoplasma gondii [9], with Toxoplasma gondii [10], in the experiment with Toxoplasma gondii [11] and in the experiment with Toxoplasma gondii [12] was inactive. Also, the outcome in the experiment on Toxoplasma gondii [13], in the experiment with Toxoplasma gondii [14], with Toxoplasma gondii [15] and in the experiment with Toxoplasma gondii [16] was inactive. Besides, the values for the half-inhibitory concentration (IC50) (against Dihydrofolate reductase; in [17]) were 7.3 µM and 5.1 µM, respectively.

On to `CCOC(=O)C1=C(C)N=C(SCC(=O)c2ccc(Cl)c([N+](=O)[O-])c2)NC1c1ccccc1` (configuration not stated), for which the result in the experiment on Toxoplasma gondii [1], with Toxoplasma gondii [2], in the experiment with Toxoplasma gondii [3], with Toxoplasma gondii [4], in the experiment on Toxoplasma gondii [5] and in the experiment with Toxoplasma gondii [6] was inactive. Also, the outcome with Toxoplasma gondii [7], with Toxoplasma gondii [8], with Toxoplasma gondii [9], in the experiment on Toxoplasma gondii [10], in the experiment with Toxoplasma gondii [11] and with Toxoplasma gondii [12] was inactive. Moreover, the result in the experiment with Toxoplasma gondii [13], in the experiment on Toxoplasma gondii [14], in the experiment on Toxoplasma gondii [15] and in the experiment on Toxoplasma gondii [16] was inactive. Besides, the IC50 against Dihydrofolate reductase is 3 µM; in [17], 2.3 µM.

On to `CC(=O)C1=C(C)NC(=S)NC1c1cccc(O)c1` (configuration not stated), for which the result in the experiment on Toxoplasma gondii [1], in the experiment with Toxoplasma gondii [2], with Toxoplasma gondii [3], with Toxoplasma gondii [4], in the experiment on Toxoplasma gondii [5] and with Toxoplasma gondii [6] was inactive. The outcome with Toxoplasma gondii [7], in the experiment with Toxoplasma gondii [8], in the experiment on Toxoplasma gondii [9], in the experiment with Toxoplasma gondii [10], in the experiment with Toxoplasma gondii [11] and in the experiment with Toxoplasma gondii [12] was inactive. The result in the experiment on Toxoplasma gondii [13], in the experiment with Toxoplasma gondii [14], in the experiment on Toxoplasma gondii [15] and in the experiment on Toxoplasma gondii [16] was inactive. In addition, the values for the IC50 (on Dihydrofolate reductase; in experiment [17]) were 9.4 µM and 7.6 µM, respectively.

On to `COc1cc(Cc2cnc(N)nc2N)cc(OC)c1OC` [TRIMETHOPRIM], for which the IC50 in experiment [17] turned out to be 4 µM.

On to `CCOC(=O)C1=C(C)NC(=S)NC1c1ccccc1` (configuration not stated), for which the outcome in the experiment with Toxoplasma gondii [1], in the experiment on Toxoplasma gondii [2], in the experiment on Toxoplasma gondii [3], with Toxoplasma gondii [4], in the experiment on Toxoplasma gondii [5] and in the experiment with Toxoplasma gondii [6] was inactive. The outcome in the experiment with Toxoplasma gondii [7], with Toxoplasma gondii [8], in the experiment with Toxoplasma gondii [9], in the experiment with Toxoplasma gondii [10], in the experiment with Toxoplasma gondii [11] and in the experiment on Toxoplasma gondii [12] was inactive. Besides, the outcome with Toxoplasma gondii [13], with Toxoplasma gondii [14], in the experiment on Toxoplasma gondii [15] and with Toxoplasma gondii [16] was inactive. For the same molecule, the figures for the IC50 (at Dihydrofolate reductase; in [17]) were 0.58 µM and 4.7 µM, respectively.

With `CCOC(=O)C1=C(C)NC(=S)NC1c1ccccc1OC` (configuration not stated), the result in the experiment on Toxoplasma gondii [1], in the experiment with Toxoplasma gondii [2], in the experiment on Toxoplasma gondii [3], with Toxoplasma gondii [4], with Toxoplasma gondii [5] and in the experiment on Toxoplasma gondii [6] was inactive. Besides, the outcome in the experiment on Toxoplasma gondii [7], in the experiment on Toxoplasma gondii [8], in the experiment with Toxoplasma gondii [9], in the experiment on Toxoplasma gondii [10], in the experiment with Toxoplasma gondii [11] and in the experiment with Toxoplasma gondii [12] was inactive. Besides, the outcome with Toxoplasma gondii [13], in the experiment with Toxoplasma gondii [14], in the experiment with Toxoplasma gondii [15] and in the experiment with Toxoplasma gondii [16] was inactive. In addition, the IC50 at Dihydrofolate reductase is 1.9 µM; in experiment [17], 2.4 µM.

On to `CCOC(=O)CSC1=NC(c2ccccc2)C(C(=O)OCC)=C(C)N1` (configuration not stated), for which the outcome in the experiment on Toxoplasma gondii [1], with Toxoplasma gondii [2], in the experiment on Toxoplasma gondii [3], in the experiment with Toxoplasma gondii [4], with Toxoplasma gondii [5] and with Toxoplasma gondii [6] was inactive. In addition, the result in the experiment with Toxoplasma gondii [7], with Toxoplasma gondii [8], in the experiment on Toxoplasma gondii [9], in the experiment on Toxoplasma gondii [10], with Toxoplasma gondii [11] and in the experiment on Toxoplasma gondii [12] was inactive. Moreover, the outcome in the experiment with Toxoplasma gondii [13], with Toxoplasma gondii [14], in the experiment on Toxoplasma gondii [15] and in the experiment on Toxoplasma gondii [16] was inactive. Besides, the IC50 against Dihydrofolate reductase is 0.83 µM; in experiment [17] it was 3.2 µM.

Turning to `CCOC(=O)C1=C(C)NC(=S)NC1/C=C\c1ccccc1` (configuration not stated), the outcome with Toxoplasma gondii [1], in the experiment on Toxoplasma gondii [2], in the experiment with Toxoplasma gondii [3], in the experiment on Toxoplasma gondii [4], in the experiment on Toxoplasma gondii [5] and in the experiment with Toxoplasma gondii [6] was inactive. The outcome in the experiment on Toxoplasma gondii [7], with Toxoplasma gondii [8], with Toxoplasma gondii [9], with Toxoplasma gondii [10], in the experiment with Toxoplasma gondii [11] and in the experiment on Toxoplasma gondii [12] was inactive. For the same molecule, the result with Toxoplasma gondii [13], in the experiment on Toxoplasma gondii [14], in the experiment on Toxoplasma gondii [15] and with Toxoplasma gondii [16] was inactive. Besides, the concentration for half-maximal inhibition (IC50) was 2.9 µM against Dihydrofolate reductase and 2.1 µM in experiment [17].
